The record followed here is PubChem BioAssay AID463199 (Broad Institute, 2010).

Broadly, the AC50 is the concentration at which the activity in the assay is half-maximal.

Molecules are shown by their SMILES. Activity calls are given as the source filed them.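 Rule for the calls: active = AC50, the dose giving half-maximal effect, exceeds a fixed cutoff for a compound that rescues yeast growth under heat; inactive = the rest, inconclusive results apart.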 Where only a bound is given, the exact number is not on record here.

This assay relates to S. cerevisiae Burl-1 ts mutant growth, BacTiter-Glo, 38.5C 24 h. The assay can be described thus: growth induction of Burl-1 ts yeast mutant, dose response, counter-screen for SUMOylation pathway inhibitor project, whole organism, S. cerevisiae, luminescence (AID 463199). A general note: A counterscreen serves to expose hits that act by an unwanted route or on another target.
In the case of `Fc1ccccc1-n1cc(-c2ccccc2)[nH]c1=S`, the AC50 was > 42 µM (inactive). With `O=C(COC(=O)c1ccccc1SCC(=O)N1CCCC1)NC1CCCCC1` the figure was > 42 µM (inactive); with `CN(C#N)c1nc(Cl)nc(Nc2cccc(Cl)c2)n1`, > 42 µM (inactive). In the case of `CCOc1ccc(CCNC(=O)COC(=O)c2cccc(OC)c2O)cc1OCC`, the AC50 was > 42 µM (inactive). As for `Cc1cc(C)n(-c2ccc(C(=O)C(C#N)c3nc4ccccc4n3C)cc2)n1` (stereo unspecified), the AC50 is > 42 µM (inactive). With `c1ccc(-c2cc3ccccc3cn2)cc1` the figure was > 42 µM (inactive); with `COCC(C)n1c(-c2ccc3c(c2)NC(=O)CO3)csc1=Nc1ccc(OC(F)F)cc1` (stereo unspecified), > 42 µM (inactive).

With `O=C1OCc2cc(NS(=O)(=O)c3cccs3)ccc21`, the AC50 is > 42 µM (inactive). For the molecule `CCn1c(=O)n(CC)c2cc(NC(=O)c3ccccc3Cl)ccc21`, the AC50 is > 42 µM (inactive). With `CC[C@@H]1C/C=C\Cc2ccccc2[C@H](C(=O)C[C@@H](O)CC(C)=O)OC1=O`, the AC50 is > 42 µM (inactive).

As for `FC(F)(F)c1nc2ccccc2n2c(-c3ccc(Cl)cc3Cl)nnc12`, the AC50 is > 42 µM (inactive). In the case of `COc1ccc(C)cc1NC(=O)C12CCC(C)(C(=O)O1)C2(C)C` (stereo unspecified), the AC50 is > 42 µM (inactive).

Consider `CCCC(O)(CCC)C(=O)NNc1ccc(C)cc1`, for which the AC50 was > 42 µM (inactive). With `COc1cc(C(=O)OCC(=O)NCc2ccccc2)cc(NC(=O)c2ccco2)c1OC` the figure was > 42 µM (inactive).

Turning to `CCOC(=O)C1(CCOc2ccccc2)CCN(Cc2cccc(OC)c2O)CC1`, the AC50 was > 42 µM (inactive). The value for `CCCCC(O)(CCCC)C(=O)NN(C(=O)OC)c1ccc(C)cc1` was > 42 µM (inactive). The value for `Cc1cccc(NS(=O)(=O)c2ccc3[nH]c(=O)cc(C(=O)O)c3c2)c1` was > 21 µM (inactive). For `CC(=O)c1cccc(N2C(=NC(=O)C3CCCCC3)SC3CS(=O)(=O)CC32)c1` (stereo unspecified), the AC50 is > 42 µM (inactive). With `COc1ccccc1NC(=O)NCCc1c[nH]c2ccccc12`, the AC50 was > 42 µM (inactive). With `CN(C)c1cccc(C(=O)Nc2cc(C(F)(F)F)ccc2-n2cnc3ccccc32)c1` the figure was > 42 µM (inactive). With `CC1CCN(CCNC(=O)C2CCCN(S(=O)(=O)c3cccc4nsnc34)C2)CC1` (stereo unspecified) the figure was > 42 µM (inactive); with `O=c1c2ccccc2ncn1-c1ccc(Cl)cc1Cl`, > 42 µM (inactive). Consider `CCOC(=O)c1ccc(NC(=O)c2c(NC(=O)CCC(=O)O)sc3c2CCCCC3)cc1`, for which the AC50 was > 42 µM (inactive). Take `C/C(O)=C(\N=Nc1cc(C)ccc1O)C(N)=O`: the AC50 is > 42 µM (inactive).

As to `COc1ccc(-c2[nH]ncc2CNCCn2cccn2)c(F)c1`, the AC50 was > 42 µM (inactive). The value for `COc1cccc(CNC(=O)CCCn2nc(C)c3c(C)n(-c4ccccc4)nc3c2=O)c1` was > 42 µM (inactive).

`COc1ccc(C(=O)N/C(=C\c2cc(OC)c(OC)cc2[N+](=O)[O-])C(=O)NCCO)cc1`: the AC50 is > 42 µM (inactive). On to `O=C(NCCc1cnccn1)C1CCC(=O)N(Cc2ccc(Cl)cc2)C1` (stereo unspecified), for which the AC50 is > 42 µM (inactive).

Take `CC(c1ccccn1)N(CCN(C)C)C(=S)Nc1cccc(F)c1` (stereo unspecified): the AC50 was > 42 µM (inactive). With `Cn1cc(C(=O)Cc2ccccc2)c2ccccc21` the figure was > 42 µM (inactive).

For `O=C(NCc1ccccc1)c1cccc(COc2ccc(Cl)cc2)c1`, the AC50 is > 42 µM (inactive).

With `COc1ccc(/C=C/C(=O)N2CCC(C(N)=O)CC2)cc1S(=O)(=O)N1CCOCC1`, the AC50 was > 42 µM (inactive). As to `O=C(CCCC(=O)N/N=C/c1ccccc1C(=O)O)N/N=C/c1ccccc1C(=O)O`, the AC50 was > 42 µM (inactive). The value for `O=C1NC(c2ccccc2)C(C(=O)c2cccs2)C(O)(C(F)(F)F)N1` (stereo unspecified) was > 42 µM (inactive); that for `Nc1nc(SCc2nc3scc(-c4cccs4)c3c(=O)[nH]2)n[nH]1` was > 42 µM (inactive). With `Cc1noc(C)c1S(=O)(=O)N1CCCC(C(=O)NCC2CCCO2)C1` (stereo unspecified) the figure was > 42 µM (inactive); with `Cc1ccc(S(=O)(=O)N2[C@@H](c3ccc(Br)cc3)C(C(=O)O)=C[C@H]2CC2CCCC2)cc1`, > 42 µM (inactive).

Turning to `CCOC(=O)c1cnc2ccc(Cl)cc2c1N1CCN(C)CC1`, the AC50 is > 42 µM (inactive).

Take `CCCc1cc(=O)oc2c3c(c4c(c12)OC(C)(C)C=C4)OC(C)C(C)C3O` (stereo unspecified): the AC50 was > 42 µM (inactive). The value for `CCOC(=O)C1=C[C@]2(CC)CCCN3CCc4c(n1c1ccccc41)[C@@H]32` was > 42 µM (inactive); that for `Cc1ccc(-n2nnnc2C(Cl)(Cl)c2nnnn2-c2ccc(C)cc2)cc1` was > 42 µM (inactive). With `CCNc1ccccc(C(=O)/C=C/c2ccc3c(c2)OCO3)c1=O` the figure was > 42 µM (inactive). Turning to `O=Nc1c(-c2cccc([N+](=O)[O-])c2)nc2ncccn12`, the AC50 is > 42 µM (inactive). The value for `COc1ccccc1NC(=O)CN(c1ccc(C)cc1)S(=O)(=O)c1c(C)n[nH]c1C` was > 42 µM (inactive).

Take `COc1ccc2c(c1)[C@H]1[C@H](CO2)[C@H](c2ccccc2)[C@]2(C)C(=O)Nc3cc(F)ccc3C(=O)N12`: the AC50 was > 42 µM (inactive).

On to `CCc1cccc(C)c1NC(=O)CSc1nnc(-c2cc3cc(Br)ccc3o2)n1CC`, for which the AC50 was > 42 µM (inactive). The value for `N#Cc1ccc(/C=C/C(=O)c2ccco2)cc1` was > 42 µM (inactive).

For `COc1cc(/C=N/NC(=O)c2cccnc2)ccc1OCC(=O)N1CCOCC1`, the AC50 was > 42 µM (inactive). With `COC(=O)[C@H](Cc1ccccc1)NC(=O)NC(C)CCc1ccccc1` (stereo partly specified) the figure was > 42 µM (inactive). For `CCN(C(=O)Cn1nc(C)c([N+](=O)[O-])c1C)c1c(N)n(Cc2ccccc2)c(=O)[nH]c1=O`, the AC50 is > 42 µM (inactive).

Take `COC(=O)c1ccccc1NC(=O)CSc1nnnn1CC(=O)O`: the AC50 was > 42 µM (inactive). With `CCN(CC)C(=O)CSc1nnc(CNc2ccc(F)cc2)n1Cc1ccco1` the figure was > 42 µM (inactive); with `COc1ccccc1C(=O)NC(=O)COC(=O)Cc1ccccc1[N+](=O)[O-]`, > 42 µM (inactive); with `COc1cccc(N2CCN(C3CCCC(C)C3)CC2)c1` (stereo unspecified), > 42 µM (inactive). With `CCc1ccc(NC(=S)N(Cc2cccc(Br)c2)CC2CCC(C(=O)O)CC2)cc1` (stereo unspecified) the figure was > 42 µM (inactive); with `Cc1cc(C)n2nc(SCC(=O)NC3CCCC(C)C3C)nc2n1` (stereo unspecified), > 42 µM (inactive). The value for `COc1ccccc1CCNC(=O)/C(=C/c1cccnc1)NC(=O)c1ccccc1` was > 42 µM (inactive); that for `COc1ccc(C(=O)c2c(C)c3cc(C)ccc3n2CC(O)CN2CCOCC2)cc1` (stereo unspecified) was > 110 µM (inactive). For `COc1ccccc1CC(=O)N1CCN(S(=O)(=O)c2ccccc2)CC1`, the AC50 is > 42 µM (inactive). The value for `CC(C)(C)c1ccc(C(=O)COC(=O)CN2C(=O)NC3(CCCC3)C2=O)cc1` was > 42 µM (inactive); that for `COc1ccc(C2CC3(CC(C)(C)NC(=S)N3)Oc3cc(O)cc(C)c32)cc1` (stereo unspecified) was > 42 µM (inactive). As for `CC(=O)Nc1cccc(NC(=S)Nc2ccc(F)cc2F)c1`, the AC50 was > 42 µM (inactive). Take `O=C(c1cc2ccccc2o1)N1CCCC1`: the AC50 was > 42 µM (inactive). As to `CO/N=C/c1ccc(Oc2ccc(C)cc2)nc1`, the AC50 was > 42 µM (inactive). With `C=CSc1sc(Cl)c(N(C)C)c1[N+](=O)[O-]`, the AC50 was > 42 µM (inactive). `O=C(Nc1nccs1)C1CCN(S(=O)(=O)c2ccc(Cl)c(C(F)(F)F)c2)CC1`: the AC50 is > 42 µM (inactive). The value for `c1ccc2cc(C3CCCCC3)ncc2c1` was > 42 µM (inactive); that for `COc1ccc(CN(C)C(=O)c2sccc2-c2ccccc2)c(OC)c1` was > 42 µM (inactive). Take `O=S(=O)(Cc1ccccc1)N1CCN(c2ccccc2)CC1`: the AC50 is > 42 µM (inactive). Turning to `COc1ccc2c(c1)OC[C@H]1[C@H]2N2C(=O)c3cc(C)ccc3NC(=O)[C@@]2(C)[C@H]1c1ccccc1`, the AC50 was > 42 µM (inactive). With `CCOc1ccccc1CN1CCN(Cc2ccon2)CC1CCO` (stereo unspecified) the figure was > 42 µM (inactive); with `COc1ccc(-c2nnc(SCC(=O)N3CCCCC3)o2)cc1`, > 42 µM (inactive). The value for `CCC(CC)NC(=O)c1oc2ccccc2c1COc1ccccc1` was > 42 µM (inactive). In the case of `COCCNC(=O)C(=O)N/N=C(\C)CC(=O)Nc1cccc(C(F)(F)F)c1`, the AC50 is > 42 µM (inactive).

Consider `CC(C)c1cccc(OCCCCN(C)C)c1`, for which the AC50 is > 42 µM (inactive). With `CCc1nccn1S(=O)(=O)c1cc(OC)ccc1OC` the figure was > 42 µM (inactive); with `CN1C(=O)C(=Cc2ccc(N3CCCCC3)o2)C(=O)N(C)C1=S`, > 42 µM (inactive); with `CCN(C(=O)Cn1c(=O)oc2ccccc21)c1cccc(C)c1`, > 42 µM (inactive). The value for `C=CCN1c2ccccc2[C@]23C[C@@H](C(=O)OC)N=C2NC(C(=O)OC)=C(C(=O)OC)[C@H]13` was > 42 µM (inactive). Regarding `CN(C)c1oc(-c2ccccc2Cl)nc1S(=O)(=O)c1ccccc1`, the AC50 is > 42 µM (inactive). As for `CCN(CC(=O)NCc1ccc(Cl)cc1)C(=O)/C=C/c1ccc(C#N)cc1`, the AC50 was > 42 µM (inactive). With `Cc1cc(C)c2cc(C)c3nnc(SCC(=O)NCc4ccc5c(c4)OCO5)n3c2c1`, the AC50 is > 42 µM (inactive). With `COc1cccc(-n2nnc3c(=O)n(CC(=O)N4CCCc5ccccc54)cnc32)c1` the figure was > 42 µM (inactive); with `COc1ccc(NC(=O)c2cc(C)no2)cc1Cl`, > 42 µM (inactive); with `COC(=O)C1=C(C)N(Cc2ccccc2)C(=S)N[C@H]1c1cccc(F)c1`, > 42 µM (inactive).

Consider `CCN1CCCC1CN(Cc1cc2ccc(C)cc2[nH]c1=O)C(=S)Nc1ccccc1C(=O)OC` (stereo unspecified), for which the AC50 was > 42 µM (inactive).
